Source: patent publication US20230416238A1, “N-[(1,3-BENZOXAZOL-2-YL)-HETEROCYCLE]AMIDE DERIVATIVES FOR THE TREATMENT AND PROPHYLAXIS OF HEPATITIS B VIRUS INFECTION” (Hoffmann-La Roche Inc., priority 2020, published 2023)

Legend:
Format in all cases: cell-based
[1] = test system: HBsAg; experiment: PHH HBV natural infection assay, HBsAg (alphalisa); conditions: Hepatitis B virus, Hepatocyte, read-out: HBsAg IC50
Method: (§1) Detailed procedures regarding primary human hepatocyte (PHH) HBV natural infection assay are described as below. One tube of frozen PHH (10 million cells) is thawed in 37° C. water bath and then transferred to 20 mL of PHH thawing medium (Sigma, InVitroGRO HT Medium, Cat. S03319) with gently mixing. The cells were then centrifuged at […] for 5 min, the supernatant was discarded and the tube was refilled with 25 mL of PHH plating medium (Sigma, InVitroGRO CP Medium, Cat. S03317). The tube was shaken very gently to re-suspend all cells, and then 50 μL of cells were transferred to each well 384-well collagen I coated plate with appropriate liquid handling equipment, e.g. Integra VIAFLO384 or Agilent Bravo. The cells were then cultured for 24 hours in a cell incubator. For HBV infection, after PHH attachment on the culture plate, the plating medium was removed and replenished with PHH culture medium containing HBV virus. The PHH culture medium was prepared with Dulbecco's Modified Eagle Medium (DMEM)/F12 (1:1 in volume ratio) containing 10% fetal bovine serum (Gibco, Cat. 10099141), 5 ng/mL human epidermal growth factor (Gibco, Cat. PHG0311L), 20 ng/mL dexamethasone (Sigma, Cat. D4902-100 mg), 250 ng/mL human recombinant insulin (Gibco, Cat. 41400045) and 100 U/mL penicillin. HBV virus at 200 genome equivalent (GE) per cell with 4% PEG8000 (Sigma, Cat. P1458) containing culture medium were added to the PHH culture medium for infection. The cells were then cultured for 24 hours in cell incubator. Then the cell culture supernatant was removed. The HBV-infected PHH were cultured with sandwich culture method with MEI culture medium containing 1% DMSO and 0.25 mg/mL matrix gel for 72 hours. The supernatant was then refreshed with PHH culture medium containing different concentrations of testing compounds for two times with 72-hour interval. At the end of treatment, the supernatant was collected for viral markers measurements, including HBsAg, HBeAg, HBV DNA and cytotoxicity. HBsAg and HBeAg were detected using alphalisa method using their specific antibodies. For HBV DNA detection, HBV DNA Quantitative Fluorescence Diagnostic Kit (Sansure Biotech Inc.) was used following the manufacture's protocol. Cytotoxicity was determined using Cell Counting Kit-8 (CCK8, Dojindo Molecular Technologies, Inc.).
(§2) The compounds of the present invention were tested for their capacity to inhibit HBsAg and HBeAg as described herein.

[2] = test system: HBeAg; experiment: PHH HBV natural infection assay, HBeAg (alphalisa); conditions: Hepatitis B virus, Hepatocyte, read-out: HBeAg IC50
Method: as §1, §2

[3] = Cytotoxicity in PHH natural infection assay (Cell Counting Kit-8); conditions: HBV-infected primary human hepatocytes, CCK8
Method: as §1

SMILES: CC(C)(C)C(=O)NC1CC2(C1)CN(c1nc3cc(Cl)ccc3o1)C2 [Example 27, N-[2-(5-chloro-1,3-benzoxazol-2-yl)-2-azaspiro[3.3]heptan-6-yl]-2,2-dimethyl-propanamide]
- IC50 [1]: 5.67 µM
- IC50 [2]: 3.69 µM
- CC50 at 144 h [3]: > 100 µM

SMILES: CC(C)CC(=O)NC1CC2(C1)CN(c1nc3cc(Cl)ccc3o1)C2 [Example 28, N-[2-(5-chloro-1,3-benzoxazol-2-yl)-2-azaspiro[3.3]heptan-6-yl]-3-methyl-butanamide]
- IC50 [1]: 3.31 µM
- IC50 [2]: 2.18 µM
- CC50 at 144 h [3]: 76.6 µM

SMILES: CC(C)(O)C(=O)NC1CC2(C1)CN(c1nc3cc(Cl)ccc3o1)C2 [Example 29, N-[2-(5-chloro-1,3-benzoxazol-2-yl)-2-azaspiro[3.3]heptan-6-yl]-2-hydroxy-2-methyl-propanamide]
- IC50 [1]: 7.13 µM
- IC50 [2]: 7.37 µM
- CC50 at 144 h [3]: > 100 µM

SMILES: O=C(NC1CC2(C1)CN(c1nc3cc(Cl)ccc3o1)C2)C1CC1(F)F (stereo not drawn) [Example 30, N-[2-(5-chloro-1,3-benzoxazol-2-yl)-2-azaspiro[3.3]heptan-6-yl]-2,2-difluoro-cyclopropanecarboxamide]
- IC50 [1]: 3.5 µM
- IC50 [2]: 2.7 µM
- CC50 at 144 h [3]: > 100 µM

SMILES: O=C(NC1CC2(C1)CN(c1nc3cc(Cl)ccc3o1)C2)C1CC(F)(F)C1 [Example 31, N-[2-(5-chloro-1,3-benzoxazol-2-yl)-2-azaspiro[3.3]heptan-6-yl]-3,3-difluoro-cyclobutanecarboxamide]
- IC50 [1]: 6.98 µM
- IC50 [2]: 6.22 µM
- CC50 at 144 h [3]: > 100 µM

SMILES: O=C(NC1CC2(C1)CN(c1nc3cc(Cl)ccc3o1)C2)C1CCC(F)(F)C1 (stereo not drawn) [Example 32, N-[2-(5-chloro-1,3-benzoxazol-2-yl)-2-azaspiro[3.3]heptan-6-yl]-3,3-difluoro-cyclopentanecarboxamide]
- IC50 [1]: 4.25 µM
- IC50 [2]: 10.3 µM
- CC50 at 144 h [3]: > 100 µM

SMILES: CC1(C(=O)NC2CC3(C2)CN(c2nc4cc(Cl)ccc4o2)C3)CCS(=O)(=O)C1 (stereo not drawn) [Example 33, N-[2-(5-chloro-1,3-benzoxazol-2-yl)-2-azaspiro[3.3]heptan-6-yl]-3-methyl-1,1-dioxo-thiolane-3-carboxamide]
- IC50 [1]: 4.51 µM
- IC50 [2]: 4.4 µM
- CC50 at 144 h [3]: > 100 µM

SMILES: O=C(NC1CC2(C1)CN(c1nc3cc(Cl)ccc3o1)C2)C1CS(=O)(=O)C1 [Example 34, N-[2-(5-chloro-1,3-benzoxazol-2-yl)-2-azaspiro[3.3]heptan-6-yl]-1,1-dioxo-thietane-3-carboxamide]
- IC50 [1]: 5.5 µM
- IC50 [2]: 4.48 µM
- CC50 at 144 h [3]: > 100 µM

SMILES: O=C(CC1CS(=O)(=O)C1)NC1CC2(C1)CN(c1nc3cc(Cl)ccc3o1)C2 (stereo not drawn) [Example 35, N-[2-(5-chloro-1,3-benzoxazol-2-yl)-2-azaspiro[3.3]heptan-6-yl]-2-(1,1-dioxothietan-3-yl)acetamide]
- IC50 [1]: 2.36 µM
- IC50 [2]: 2.22 µM
- CC50 at 144 h [3]: > 100 µM

SMILES: O=C(NC1CC2(C1)CN(c1nc3cc(Cl)ccc3o1)C2)C1CCS(=O)(=O)CC1 [Example 36, N-[2-(5-chloro-1,3-benzoxazol-2-yl)-2-azaspiro[3.3]heptan-6-yl]-1,1-dioxo-thiane-4-carboxamide]
- IC50 [1]: 8.28 µM
- IC50 [2]: 4.03 µM
- CC50 at 144 h [3]: > 100 µM

SMILES: O=C(NC1CC2(C1)CN(c1nc3ccc(Cl)cc3o1)C2)c1ccnc(S(=O)(=O)C2CC2)c1 [Example 37, N-[2-(6-chloro-1,3-benzoxazol-2-yl)-2-azaspiro[3.3]heptan-6-yl]-2-cyclopropylsulfonyl-pyridine-4-carboxamide]
- IC50 [1]: 7.75 µM
- IC50 [2]: 6.26 µM
- CC50 at 144 h [3]: > 10 µM

SMILES: COc1cc(C(=O)NC2CC3(C2)CN(c2nc4ccc(Cl)cc4o2)C3)ccn1 [Example 38, N-[2-(6-chloro-1,3-benzoxazol-2-yl)-2-azaspiro[3.3]heptan-6-yl]-2-methoxy-pyridine-4-carboxamide]
- IC50 [1]: 6.89 µM
- IC50 [2]: 5.73 µM
- CC50 at 144 h [3]: > 10 µM

SMILES: COCCOc1cc(C(=O)NC2CC3(C2)CN(c2nc4cc(Cl)ccc4o2)C3)ccn1 [Example 39, N-[2-(5-chloro-1,3-benzoxazol-2-yl)-2-azaspiro[3.3]heptan-6-yl]-2-(2-methoxyethoxy)pyridine-4-carboxamide]
- IC50 [1]: 6.47 µM
- IC50 [2]: 4.37 µM
- CC50 at 144 h [3]: > 100 µM

SMILES: CS(=N)(=O)c1ccc(C(=O)NC2CC3(C2)CN(c2nc4cc(Cl)ccc4o2)C3)o1 (stereo not drawn) [Example 40, N-[2-(5-chloro-1,3-benzoxazol-2-yl)-2-azaspiro[3.3]heptan-6-yl]-5-(methylsulfonimidoyl)furan-2-carboxamide]
- IC50 [1]: 6.13 µM
- IC50 [2]: 4.78 µM
- CC50 at 144 h [3]: > 100 µM

SMILES: CC(C)Oc1cc(C(=O)NC2CC3(C2)CN(c2nc4ccc(Cl)cc4o2)C3)ccn1 [Example 41, N-[2-(6-chloro-1,3-benzoxazol-2-yl)-2-azaspiro[3.3]heptan-6-yl]-2-isopropoxy-pyridine-4-carboxamide]
- IC50 [1]: 5.87 µM
- IC50 [2]: 3.81 µM
- CC50 at 144 h [3]: > 10 µM

SMILES: O=C(NC1CC2(C1)CN(c1nc3cc(Cl)ccc3o1)C2)c1ccc(C(F)(F)F)o1 [Example 42, N-[2-(5-chloro-1,3-benzoxazol-2-yl)-2-azaspiro[3.3]heptan-6-yl]-5-(trifluoromethyl)furan-2-carboxamide]
- IC50 [1]: 5.66 µM
- IC50 [2]: 4.67 µM
- CC50 at 144 h [3]: > 100 µM

SMILES: COc1cc(C(=O)NC2CC3(C2)CN(c2nc4cc(Cl)ccc4o2)C3)ccn1 [Example 43, N-[2-(5-chloro-1,3-benzoxazol-2-yl)-2-azaspiro[3.3]heptan-6-yl]-2-methoxy-pyridine-4-carboxamide]
- IC50 [1]: 1.76 µM
- IC50 [2]: 1.01 µM
- CC50 at 144 h [3]: 84.8 µM

SMILES: O=C(NC1CC2(C1)CN(c1nc3cc(Cl)ccc3o1)C2)c1ccc(S(=O)(=O)C2CC2)o1 [Example 44, N-[2-(5-chloro-1,3-benzoxazol-2-yl)-2-azaspiro[3.3]heptan-6-yl]-5-cyclopropylsulfonyl-furan-2-carboxamide]
- IC50 [1]: 2.27 µM
- IC50 [2]: 1.28 µM
- CC50 at 144 h [3]: > 100 µM

SMILES: Cc1cc(C(=O)NC2CC3(C2)CN(c2nc4cc(Cl)ccc4o2)C3)ccn1 [Example 45, N-[2-(5-chloro-1,3-benzoxazol-2-yl)-2-azaspiro[3.3]heptan-6-yl]-2-methyl-pyridine-4-carboxamide]
- IC50 [1]: 2.73 µM
- IC50 [2]: 1.3 µM
- CC50 at 144 h [3]: 80.1 µM

SMILES: COc1ccc(C(=O)NC2CC3(C2)CN(c2nc4cc(Cl)ccc4o2)C3)cn1 [Example 46, N-[2-(5-chloro-1,3-benzoxazol-2-yl)-2-azaspiro[3.3]heptan-6-yl]-6-methoxy-pyridine-3-carboxamide]
- IC50 [1]: 4.74 µM
- IC50 [2]: 2.86 µM
- CC50 at 144 h [3]: > 100 µM

SMILES: C[S@](=N)(=O)c1ccc(C(=O)NC2CC3(C2)CN(c2nc4cc(Cl)ccc4o2)C3)o1 [Example 47, N-[2-(5-chloro-1,3-benzoxazol-2-yl)-2-azaspiro[3.3]heptan-6-yl]-5-[(S)-methylsulfonimidoyl]furan-2-carboxamide]
- IC50 [1]: 4.24 µM
- IC50 [2]: 2.31 µM
- CC50 at 144 h [3]: > 100 µM

SMILES: CS(=O)(=O)c1ccc(C(=O)NC2CC3(C2)CN(c2nc4cc(Cl)cnc4o2)C3)o1 [Example 48, N-[2-(6-chlorooxazolo[5,4-b]pyridin-2-yl)-2-azaspiro[3.3]heptan-6-yl]-5-methylsulfonyl-furan-2-carboxamide]
- IC50 [1]: 3.8 µM
- IC50 [2]: 2.95 µM
- CC50 at 144 h [3]: > 100 µM

SMILES: CCOc1cc(C(=O)NC2CC3(C2)CN(c2nc4cc(Cl)ccc4o2)C3)ccn1 [Example 49, N-[2-(5-chloro-1,3-benzoxazol-2-yl)-2-azaspiro[3.3]heptan-6-yl]-2-ethoxy-pyridine-4-carboxamide]
- IC50 [1]: 3.1 µM
- IC50 [2]: 1.7 µM
- CC50 at 144 h [3]: > 100 µM

SMILES: CC(C)CS(=N)(=O)c1ccc(C(=O)NC2CC3(C2)CN(c2nc4cc(Cl)ccc4o2)C3)o1 (stereo not drawn) [Example 50, N-[2-(5-chloro-1,3-benzoxazol-2-yl)-2-azaspiro[3.3]heptan-6-yl]-5-(isobutylsulfonimidoyl)furan-2-carboxamide]
- IC50 [1]: 1.66 µM
- IC50 [2]: 1.49 µM
- CC50 at 144 h [3]: 95.4 µM

SMILES: CS(=O)(=O)Cc1ccc(C(=O)NC2CC3(C2)CN(c2nc4cc(Cl)ccc4o2)C3)o1 [Example 51, N-[2-(5-chloro-1,3-benzoxazol-2-yl)-2-azaspiro[3.3]heptan-6-yl]-5-(methylsulfonylmethyl)furan-2-carboxamide]
- IC50 [1]: 2.22 µM
- IC50 [2]: 1.95 µM
- CC50 at 144 h [3]: > 100 µM
